Drawing on patent US11530206B2, “Phenylaminopyrimidine amide autophagy inhibitors and methods of use thereof” (Deciphera Pharmaceuticals, LLC, priority 2019, dated 2022), this text covers IC50 for twelve compounds.

SMILES strings stand for the structures.

One assay deals with ULK kinase. The assay can be described thus: pATG13 levels of mutant KRas HCT-116 cells after treatment with ULK inhibitors in combination with trametinib (ELISA). Type of assay: cell-based, human. The note with it: HCT-116 colon cancer cells, 250 nM trametinib, overnight, pS318-ATG13. The protocol: The following day, 10 μL of media containing trametinib or DMSO as a control was added to wells. […] A dose response of a test compound (0.6 μL per well) was added. DMSO (0.6 μL) was added to control wells. The plate was briefly shaken to mix wells and then incubated at 37° C. overnight. The next day, the media was aspirated and cells were washed with Dulbecco's Phosphate Buffered Saline (Gibco). Cells were lysed using MPER lysis buffer (Pierce, Rockford, Ill.) containing Halt Phosphatase and Protease Inhibitors (Pierce, Rockford, Ill.) and Phosphatase inhibitor cocktail 2 (Sigma, St. Louis, Mo.) at 4° C. for 10 minutes with shaking.
Plate wells were washed with ELISA wash buffer. Cell lysate was added to wells and incubated at room temperature for 2 hours. Plate wells were washed with ELISA wash buffer. […] Plate wells were washed with ELISA wash buffer. […] Plate wells were washed with ELISA wash buffer. […] The reaction was stopped with 2N Sulfuric Acid. The plate was analyzed at on a plate reader measuring absorbance at 450 nm and 540 nm (background). Signal was calculated by first subtracting the background absorbance at 540 nm from the absorbance at 450 nm for each well. Next, the background corrected absorbance at 450 nm from blank wells was subtracted from test wells. Data was compared to control wells to determine % ATG13 phosphorylation. GraphPad Prism was used to calculate IC50 values.

Assay [1] addresses T1, ULK1 kinase (Homo sapiens, UniProt O75385, E37A/K38A).
T1 construct: purchased Beryllium
T1 sequence (O75385 1-283 E37A/K38A): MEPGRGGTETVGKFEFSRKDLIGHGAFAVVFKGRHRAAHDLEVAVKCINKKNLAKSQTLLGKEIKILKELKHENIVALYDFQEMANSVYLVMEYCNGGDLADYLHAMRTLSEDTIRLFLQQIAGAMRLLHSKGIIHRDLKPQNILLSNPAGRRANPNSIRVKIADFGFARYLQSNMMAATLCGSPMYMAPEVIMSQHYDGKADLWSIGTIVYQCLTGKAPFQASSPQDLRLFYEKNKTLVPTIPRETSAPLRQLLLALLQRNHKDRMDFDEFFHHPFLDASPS
Briefly: Biochemical assay for ULK1.3 (coupled pyruvate kinase/lactate dehydrogenase assay, peptide substrate). The note with it: 0.1 nM ULK1 (residues 1-283), 1 mM ATP. The gist of the method: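 ULK1.3 activity was followed by continuous decrease in 340 nm absorbance over 6 h at 30 °C with 1% DMSO final. Rates were taken from the 2–3 h window and converted to percent inhibition against no-compound and known-inhibitor controls. IC50 values came from curve fitting.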

Assay [2] addresses T2, ULK1 kinase (Homo sapiens, UniProt O75385).
T2 construct: purchased Eurofins 14-959
T2 sequence (O75385 with tags, fused parts or gaps): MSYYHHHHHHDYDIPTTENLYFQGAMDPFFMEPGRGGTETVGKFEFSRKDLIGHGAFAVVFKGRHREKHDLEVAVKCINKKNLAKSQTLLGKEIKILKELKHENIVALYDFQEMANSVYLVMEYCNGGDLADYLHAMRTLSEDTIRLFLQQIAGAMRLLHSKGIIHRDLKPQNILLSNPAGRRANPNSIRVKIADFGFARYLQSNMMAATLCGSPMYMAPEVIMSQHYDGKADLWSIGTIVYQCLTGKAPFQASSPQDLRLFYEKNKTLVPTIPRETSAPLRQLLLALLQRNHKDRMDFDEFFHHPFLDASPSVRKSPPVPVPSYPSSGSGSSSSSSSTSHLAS
The assay can be described thus: Biochemical assay for ULK1.2 (coupled pyruvate kinase/lactate dehydrogenase assay). Particulars: 19 nM ULK1 (residues 1-314, His tag), myelin basic protein, 1 mM ATP. The gist of the method: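 Coupled assay followed the fall in absorbance at 340 nm continuously for 6 hours at 30 °C, with compounds serially diluted at 1% DMSO final. Rates from the 2–3 h window were normalised to no-compound and reference-inhibitor controls. IC50 came from a four-parameter sigmoidal fit.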

In a further assay the target is T3, ULK2 kinase (Homo sapiens, UniProt Q8IYT8).
T3 construct: purchased Eurofins 14-772
The assay can be described thus: Biochemical assay for ULK2 (coupled pyruvate kinase/lactate dehydrogenase assay). Particulars: 9.7 nM ULK2 (residues 1-306, GST and His tag), myelin basic protein, 1 mM ATP; read-out: ULK2.2. An outline of the steps:
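Continuous PK/LDH-coupled NADH oxidation assay: 9.7 nM ULK2, 0.25 mg/mL myelin basic protein, 1 mM ATP, pH 7.5 Tris/15 mM MgCl2 buffer, 1% DMSO, 30° C. A340 followed 6 h; rate from 2-3 h window converted to % inhibition, IC50 from four-parameter fit.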

T3 sequence (Q8IYT8 with tags, fused parts or gaps): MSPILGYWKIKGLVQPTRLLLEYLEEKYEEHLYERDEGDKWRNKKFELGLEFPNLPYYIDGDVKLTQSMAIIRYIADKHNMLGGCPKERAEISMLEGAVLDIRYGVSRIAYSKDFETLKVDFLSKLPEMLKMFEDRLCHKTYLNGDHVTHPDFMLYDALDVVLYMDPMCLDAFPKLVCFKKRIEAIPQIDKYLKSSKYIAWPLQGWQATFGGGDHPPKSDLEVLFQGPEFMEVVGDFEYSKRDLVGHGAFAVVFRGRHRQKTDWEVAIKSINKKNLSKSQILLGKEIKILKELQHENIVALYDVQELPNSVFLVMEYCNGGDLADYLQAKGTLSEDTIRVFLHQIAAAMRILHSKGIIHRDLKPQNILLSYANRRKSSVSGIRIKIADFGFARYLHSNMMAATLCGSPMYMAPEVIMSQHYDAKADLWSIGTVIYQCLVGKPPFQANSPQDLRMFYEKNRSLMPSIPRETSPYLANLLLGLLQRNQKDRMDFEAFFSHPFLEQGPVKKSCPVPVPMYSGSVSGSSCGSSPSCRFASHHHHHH

With `CCc1cc(N2CCN(C)CC2)ccc1Nc1ncc(Br)c(NCCCN2CCOCCC2=O)n1` [Example 76], the IC50 in the assay on ULK kinase was 10 to 100 nM; at ULK1 kinase [1], 1 to 25 nM; against ULK1 kinase [2], 1 to 25 nM.

Turning to `CCc1cc(N2CCNCC2)ccc1Nc1ncc(C(F)(F)F)c(NCCCN2CCCOC2=O)n1` [Example 46], the results for the IC50 in the assay with ULK kinase, at ULK1 kinase [1] and on ULK2 kinase were 100 to 300 nM, 1 to 25 nM and 25 to 100 nM, respectively.

On to `CN1CCN(c2ccc(Nc3ncc(Cl)c(NCCCN4CCCOCC4=O)n3)c(C3CC3)c2)CC1` [Example 55], for which the figures for the IC50 in the assay with ULK kinase, on ULK1 kinase [2] and at ULK2 kinase were 10 to 100 nM, 100 to 500 nM and 100 to 500 nM, respectively.

As to `CN1CCN(c2ccc(Nc3ncc(C(F)(F)F)c(NCCCN4CCCCC4=O)n3)c(C3CC3)c2)CC1` [Example 14], the IC50 in the assay on ULK kinase fell in the range of 10 to 100 nM; against ULK1 kinase [1], 1 to 25 nM; against ULK1 kinase [2], 1 to 25 nM; on ULK2 kinase, 1 to 25 nM.

For `CCc1cc(N2CC3CCC(C2)N3C)ccc1Nc1ncc(C(F)(F)F)c(NCCCN2CCOCCC2=O)n1` [Example 74], the IC50 in the assay with ULK kinase was in the range of 10 to 100 nM; at ULK1 kinase [1], 1 to 25 nM; on ULK2 kinase, 1 to 25 nM.

For `CN1CCN(c2ccc(Nc3ncc(C(F)(F)F)c(NCCCN4CCCOC4=O)n3)c(C3CC3)c2)CC1` [Example 41], the figures for the IC50 in the assay on ULK kinase, against ULK1 kinase [1] and at ULK2 kinase were 10 to 100 nM, 1 to 25 nM and 25 to 100 nM, respectively.

For `CCc1cc(N2CCN(C)CC2)ccc1Nc1ncc(C(F)(F)F)c(NCCCN2CCCOC2=O)n1` [Example 39], the IC50 in the assay on ULK kinase fell in the range of 10 to 100 nM; at ULK1 kinase [1], 1 to 25 nM; against ULK1 kinase [2], 1 to 25 nM; at ULK2 kinase, 25 to 100 nM.

As for `CN1CCN(c2ccc(Nc3ncc(C(F)(F)F)c(NCCCN4CCOCCC4=O)n3)c(C3CC3)c2)CC1` [Example 70], the IC50 lay within 10 to 100 nM with ULK kinase, 1 to 25 nM against ULK1 kinase [1], 1 to 25 nM on ULK1 kinase [2] and 25 to 100 nM at ULK2 kinase.

Turning to `CN1CCN(c2ccc(Nc3ncc(C(F)(F)F)c(NCCCN4CCCOCC4=O)n3)c(C3CC3)c2)CC1` [Example 52], the IC50 in the assay with ULK kinase was in the range of 10 to 100 nM; against ULK1 kinase [1] it was 1 to 25 nM; against ULK1 kinase [2] it was 1 to 25 nM; at ULK2 kinase it was 25 to 100 nM.

With `CCc1cc(N2CCN(C)CC2)c(F)cc1Nc1ncc(C(F)(F)F)c(NCCCN2CCOCCC2=O)n1` [Example 86], the values for the IC50 in the assay on ULK kinase and against ULK1 kinase [1] were 100 to 300 nM and 25 to 100 nM, respectively.

Consider `CCc1cc(N2CCNCC2)ccc1Nc1ncc(C(F)(F)F)c(NCCCN2CCOCCC2=O)n1` [Example 84], for which the IC50 in the assay on ULK kinase lay within 10 to 100 nM; against ULK1 kinase [1], 1 to 25 nM; at ULK2 kinase, 25 to 100 nM.

For the compound `O=C1OCCCN1CCCNc1nc(Nc2ccc(N3CCNCC3)cc2C2CC2)ncc1C(F)(F)F` [Example 99], the IC50 fell in the range of 1 to 25 nM at ULK1 kinase [1] and 25 to 100 nM at ULK2 kinase.
